From patent US20240238424A1, “HETEROBIFUNCTIONAL COMPOUNDS AND METHODS OF TREATING DISEASE” (Halda Therapeutics OpCo, Inc., priority 2021, published 2024)

Tests used:
HeLa KRas G12C cells = test: Cellular growth inhibition assay (CTG), HeLa KRas G12C cells; format: cell-based; settings: Homo sapiens, CellTiter-Glo 2.0, day-5
Procedure: Cells were seeded in Poly-D-lysine-treated 384-well white plates, with 25 μL cell suspension at 250 cells/well for continuous treatments, and 1000 cells/well for washout treatments. Plates were spun at 300×g for 3 minutes, and cells were cultured at 37° C. with 5% CO2 in a humidified tissue culture incubator.
After 24 hours, the test compounds were diluted with cell culture medium in 96 deep well plates. DMSO was used as a negative control. A 25 μL aliquot of compound-containing medium was added in each well, at a final top concentration of 10 μM or 30 μM test compound, with 3-fold dilutions. For washout assays, after 4 hours, cell medium with compound was removed, and the cells were washed with 75p L fresh medium. Plates were then spun at 300×g for 3 minutes and replaced with 50 μL fresh medium in each well. Plates were then spun at 300×g for 3 minutes again and cultured at 37° C. with 5% CO2.
At day-0 and day-5 of compound treatments, cell viability was quantified with CellTiter-Glo 2.0 (Promega). After equilibrating cell plates at room temperature for 30 minutes, 25 μL CellTiter-Glo 2.0 reagent was dispensed into each well (on top of 50 μL of cell culture). Plates were mixed on a shaker for 2 minutes at 500 rpm, followed by a 10-minute incubation at room temperature. Luminescence readings were measured with an EnVision Plate Reader. Data was normalized to DMSO treated day-0 cell wells. A four-parameter non-linear regression curve fit was applied to dose-response data in Prism to determine the half maximal growth inhibitory concentration (GI50) of each compound.

GSPT1 = molecular target: T1, GSPT1 (Homo sapiens, UniProt P15170+Q96SW2); test: GSPT1 HiBit degradation assay; format: cell-based; settings: HEK293 LgBiT cells expressing GSPT1_HiBiT, luminescence after 6 hours
T1 construct: host or cells: HEK293 LgBiT cell line
T1 sequence (P15170 whole entry): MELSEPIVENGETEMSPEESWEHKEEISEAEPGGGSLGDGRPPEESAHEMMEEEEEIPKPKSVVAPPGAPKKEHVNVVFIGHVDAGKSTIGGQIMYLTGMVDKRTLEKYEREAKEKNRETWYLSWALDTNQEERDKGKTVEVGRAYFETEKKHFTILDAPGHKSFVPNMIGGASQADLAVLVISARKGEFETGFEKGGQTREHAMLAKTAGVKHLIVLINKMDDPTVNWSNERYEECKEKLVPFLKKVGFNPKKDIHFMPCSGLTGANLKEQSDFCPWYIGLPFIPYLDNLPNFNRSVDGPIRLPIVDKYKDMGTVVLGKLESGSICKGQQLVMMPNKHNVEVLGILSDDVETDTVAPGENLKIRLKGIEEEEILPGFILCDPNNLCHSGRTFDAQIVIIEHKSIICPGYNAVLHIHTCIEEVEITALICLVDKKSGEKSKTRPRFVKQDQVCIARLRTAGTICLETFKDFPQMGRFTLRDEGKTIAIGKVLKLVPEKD
T1 sequence (Q96SW2 whole entry): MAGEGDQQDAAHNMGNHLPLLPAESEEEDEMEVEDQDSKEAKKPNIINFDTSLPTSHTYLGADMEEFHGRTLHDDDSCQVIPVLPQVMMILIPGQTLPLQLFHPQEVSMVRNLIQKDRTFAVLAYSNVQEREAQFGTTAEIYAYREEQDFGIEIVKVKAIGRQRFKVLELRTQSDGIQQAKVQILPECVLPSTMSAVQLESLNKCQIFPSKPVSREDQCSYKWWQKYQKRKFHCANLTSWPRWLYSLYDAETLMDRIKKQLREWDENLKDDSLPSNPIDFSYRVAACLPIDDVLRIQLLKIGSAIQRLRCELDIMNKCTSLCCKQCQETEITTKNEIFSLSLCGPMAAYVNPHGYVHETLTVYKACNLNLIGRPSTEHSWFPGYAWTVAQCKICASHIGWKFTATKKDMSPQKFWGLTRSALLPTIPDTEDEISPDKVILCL
T1 sequence (Q16531 whole entry partner): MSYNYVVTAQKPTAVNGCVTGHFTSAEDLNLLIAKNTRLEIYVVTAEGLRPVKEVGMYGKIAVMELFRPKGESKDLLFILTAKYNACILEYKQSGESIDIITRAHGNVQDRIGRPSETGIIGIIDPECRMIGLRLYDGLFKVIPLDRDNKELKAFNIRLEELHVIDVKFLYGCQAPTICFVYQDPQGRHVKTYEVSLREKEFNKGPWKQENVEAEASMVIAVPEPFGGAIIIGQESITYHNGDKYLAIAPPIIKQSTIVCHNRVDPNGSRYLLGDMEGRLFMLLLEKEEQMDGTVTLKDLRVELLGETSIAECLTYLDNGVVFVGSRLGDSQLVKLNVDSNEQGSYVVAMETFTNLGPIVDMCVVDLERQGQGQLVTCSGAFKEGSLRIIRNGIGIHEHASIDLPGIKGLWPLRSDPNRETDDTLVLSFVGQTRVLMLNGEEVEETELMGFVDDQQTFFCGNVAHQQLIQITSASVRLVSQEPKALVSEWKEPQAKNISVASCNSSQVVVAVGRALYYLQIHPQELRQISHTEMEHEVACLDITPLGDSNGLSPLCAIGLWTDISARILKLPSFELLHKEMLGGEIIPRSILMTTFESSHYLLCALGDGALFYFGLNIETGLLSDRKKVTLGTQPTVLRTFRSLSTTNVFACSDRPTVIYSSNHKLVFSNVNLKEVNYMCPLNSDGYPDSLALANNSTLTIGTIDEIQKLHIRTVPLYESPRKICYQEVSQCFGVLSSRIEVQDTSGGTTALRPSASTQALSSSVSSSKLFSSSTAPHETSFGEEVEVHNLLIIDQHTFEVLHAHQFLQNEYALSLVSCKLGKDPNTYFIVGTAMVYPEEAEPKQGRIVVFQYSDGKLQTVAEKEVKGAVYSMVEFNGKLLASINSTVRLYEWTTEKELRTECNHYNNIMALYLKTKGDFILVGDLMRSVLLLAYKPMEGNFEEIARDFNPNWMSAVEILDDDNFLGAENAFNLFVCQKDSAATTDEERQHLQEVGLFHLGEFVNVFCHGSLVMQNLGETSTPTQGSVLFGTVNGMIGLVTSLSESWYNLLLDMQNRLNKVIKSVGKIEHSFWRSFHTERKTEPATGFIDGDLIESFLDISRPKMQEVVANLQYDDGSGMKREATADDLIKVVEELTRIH
Outline: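 Degradation readout is luminescence at 6 h, with DC50 taken as the concentration giving 50% GSPT1 loss. Compound titrations were added together with endurazine (0.5× final) to HEK293 LgBiT/GSPT1-HiBiT cells seeded the day before and kept at 37 °C.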

C=CC(=O)N1CCN(c2nc(NCCOCCOCCOCCOCCOCCOCCOCCOCCOCCOCCc3cc(Cl)cc(NC(=O)NCc4ccc5c(c4)CN(C4CCC(=O)NC4=O)C5=O)c3)nc3c(F)c(-c4cc(O)cc5ccccc45)c(Cl)cc23)CC1 (stereo not drawn) [Compound I-16, 1-[3-chloro-5-[2-[2-[2-[2-[2-[2-[2-[2-[2-[2-[2-[[6-chloro-8-fluoro-7-(3-hydroxy-1-naphthyl)-4-(4-prop-2-enoylpiperazin-1-yl)quinazolin-2-yl]amino]ethoxy]ethoxy]ethoxy]ethoxy]ethoxy]ethoxy]ethoxy]ethoxy]ethoxy]ethoxy]ethyl]phenyl]-3-[[2-(2,6-dioxo-3-piperidyl)-1-oxo-isoindolin-5-yl]methyl]urea]
GI50 (HeLa KRas G12C cells): > 10000 nM | DC50 (GSPT1; Table 3): > 10000 nM

C=CC(=O)N1CCN(c2nc(NCCC(=O)N(C)CCOCCOCCOCCOCCOCCOCCc3cc(Cl)cc(NC(=O)NCc4ccc5c(c4)CN(C4CCC(=O)NC4=O)C5=O)c3)nc3c(F)c(-c4cc(O)cc5ccccc45)c(Cl)cc23)CC1 (stereo not drawn) [Compound I-17]
GI50 (HeLa KRas G12C cells): > 10000 nM | DC50 (GSPT1; Table 3): > 10000 nM

C=CC(=O)N1CCN(c2nc(NCCC(=O)N(C)CCOCCOCCOCCOCCOCCOCCOCCOCCc3cc(Cl)cc(NC(=O)NCc4ccc5c(c4)CN(C4CCC(=O)NC4=O)C5=O)c3)nc3c(F)c(-c4cc(O)cc5ccccc45)c(Cl)cc23)CC1 (stereo not drawn) [Compound I-18, N-[2-[2-[2-[2-[2-[2-[2-[2-[2-[3-chloro-5-[[2-(2,6-dioxo-3-piperidyl)-1-oxo-isoindolin-5-yl]methylcarbamoylamino]phenyl]ethoxy]ethoxy]ethoxy]ethoxy]ethoxy]ethoxy]ethoxy]ethoxy]ethyl]-3-[[6-chloro-8-fluoro-7-(3-hydroxy-1-naphthyl)-4-(4-prop-2-enoylpiperazin-1-yl)quinazolin-2-yl]amino]-N-methyl-propanamide]
GI50 (HeLa KRas G12C cells): > 10000 nM | DC50 (GSPT1; Table 3): > 10000 nM

C=C(F)C(=O)N1CCN(c2nc(OC[C@@H]3CCCN3CCOCCOCCOCCOCCOCCOCCOCCOCCOCCOCCOCCOCCc3cc(Cl)cc(NC(=O)NCc4ccc5c(c4)CN(C4CCC(=O)NC4=O)C5=O)c3)nc3c2CCN(c2cccc4cccc(Cl)c24)C3)C[C@@H]1CC#N (stereo partly drawn) [Compound I-37]
GI50 (HeLa KRas G12C cells): > 10000 nM | DC50 (GSPT1; Table 3): 250 to 5000 nM

C=C(F)C(=O)N1CCN(c2nc(OC[C@@H]3CCCN3CCOCCOCCOCCOCCOCCOCCOCCOCCCCCCCCc3cc(Cl)cc(NC(=O)NCc4ccc5c(c4)CN(C4CCC(=O)NC4=O)C5=O)c3)nc3c2CCN(c2cccc4cccc(Cl)c24)C3)C[C@@H]1CC#N (stereo partly drawn) [Compound I-38]
GI50 (HeLa KRas G12C cells): < 1000 nM | DC50 (GSPT1; Table 3): < 250 nM

C=C(F)C(=O)N1CCN(c2nc(OC[C@H]3CCCN3CCOCCOCCOCCOCCOCCOCCOCCOCCOCCOCCCCCCCCc3cc(Cl)cc(NC(=O)NCc4ccc5c(c4)CN(C4CCC(=O)NC4=O)C5=O)c3)nc3c2CCN(c2cccc4cccc(Cl)c24)C3)C[C@H]1CC#N (stereo partly drawn) [Compound I-39]
GI50 (HeLa KRas G12C cells): < 1000 nM | DC50 (GSPT1; Table 3): < 250 nM

C=C(F)C(=O)N1CCN(c2nc(OC[C@@H]3CCCN3CCOCCOCCOCCOCCCCCCCCc3cc(Cl)cc(NC(=O)NCc4ccc5c(c4)CN(C4CCC(=O)NC4=O)C5=O)c3)nc3c2CCN(c2cccc4cccc(Cl)c24)C3)C[C@@H]1CC#N (stereo partly drawn) [Compound I-40]
GI50 (HeLa KRas G12C cells): < 1000 nM | DC50 (GSPT1; Table 3): < 250 nM

C=C(F)C(=O)N1CCN(c2nc(OC[C@@H]3CCCN3CCOCCOCCOCCOCCOCCOCCCCCCCCc3cc(Cl)cc(NC(=O)NCc4ccc5c(c4)CN(C4CCC(=O)NC4=O)C5=O)c3)nc3c2CCN(c2cccc4cccc(Cl)c24)C3)C[C@@H]1CC#N (stereo partly drawn) [Compound I-41]
GI50 (HeLa KRas G12C cells): < 1000 nM | DC50 (GSPT1; Table 3): < 250 nM

C=C(F)C(=O)N1CCN(c2nc(OC[C@@H]3CCCN3CCOCCOCCOCCOCCOCCOCCOCCOCCOCCOCCOCCOCCOc3cc(Cl)cc(NC(=O)NCc4ccc5c(c4)CN(C4CCC(=O)NC4=O)C5=O)c3)nc3c2CCN(c2cccc4cccc(Cl)c24)C3)C[C@@H]1CC#N (stereo partly drawn) [Compound I-42]
GI50 (HeLa KRas G12C cells): > 10000 nM | DC50 (GSPT1; Table 3): > 10000 nM

C=C(F)C(=O)N1CCN(c2nc(OC[C@@H]3CCCN3CCOCCOCCOCCOCCOCCOCCOCCCCCc3cc(Cl)cc(NC(=O)NCc4ccc5c(c4)CN(C4CCC(=O)NC4=O)C5=O)c3)nc3c2CCN(c2cccc4cccc(Cl)c24)C3)C[C@@H]1CC#N (stereo partly drawn) [Compound I-43]
GI50 (HeLa KRas G12C cells): 1000 to 3000 nM | DC50 (GSPT1; Table 3): 250 to 5000 nM

C=C(F)C(=O)N1CCN(c2nc(OC[C@@H]3CCCN3CCOCCOCCOCCOCCOCCOCCOCCOCCOCCCCCc3cc(Cl)cc(NC(=O)NCc4ccc5c(c4)CN(C4CCC(=O)NC4=O)C5=O)c3)nc3c2CCN(c2cccc4cccc(Cl)c24)C3)C[C@@H]1CC#N (stereo partly drawn) [Compound I-44]
GI50 (HeLa KRas G12C cells): 1000 to 3000 nM | DC50 (GSPT1; Table 3): 250 to 5000 nM

C=C(F)C(=O)N1CCN(c2nc(OC[C@@H]3CCCN3CCOCCOCCOCCOCCOCCOCCOCCOCCOCCOCCOCCOCCCCCCCCc3cc(Cl)cc(NC(=O)NCc4ccc5c(c4)CN(C4CCC(=O)NC4=O)C5=O)c3)nc3c2CCN(c2cccc4cccc(Cl)c24)C3)C[C@@H]1CC#N (stereo partly drawn) [Compound I-46]
GI50 (HeLa KRas G12C cells): < 1000 nM | DC50 (GSPT1; Table 3): < 250 nM

C=C(F)C(=O)N1CCN(c2nc(OC[C@@H]3CCCN3CCOCCOCCOCCOCCOCCOCCOCCOCCOCCOCCOCCOCCOCCOCCCCCCCCc3cc(Cl)cc(NC(=O)NCc4ccc5c(c4)CN(C4CCC(=O)NC4=O)C5=O)c3)nc3c2CCN(c2cccc4cccc(Cl)c24)C3)C[C@@H]1CC#N (stereo partly drawn) [Compound I-47]
GI50 (HeLa KRas G12C cells): < 1000 nM | DC50 (GSPT1; Table 3): < 250 nM

C=C(F)C(=O)N1CCN(c2nc(OC[C@@H]3CCCN3CCOCCOCCCCCCCCCCCCCCc3cc(Cl)cc(NC(=O)NCc4ccc5c(c4)CN(C4CCC(=O)NC4=O)C5=O)c3)nc3c2CCN(c2cccc4cccc(Cl)c24)C3)C[C@@H]1CC#N (stereo partly drawn) [Compound I-48]
GI50 (HeLa KRas G12C cells): 3000 to 10000 nM | DC50 (GSPT1; Table 3): 250 to 5000 nM

C=C(F)C(=O)N1CCN(c2nc(OC[C@@H]3CCCN3CCOCCOCCOCCOCCCCCCCCCCCCCCc3cc(Cl)cc(NC(=O)NCc4ccc5c(c4)CN(C4CCC(=O)NC4=O)C5=O)c3)nc3c2CCN(c2cccc4cccc(Cl)c24)C3)C[C@@H]1CC#N (stereo partly drawn) [Compound I-49]
GI50 (HeLa KRas G12C cells): > 10000 nM | DC50 (GSPT1; Table 3): 250 to 5000 nM

C=C(F)C(=O)N1CCN(c2nc(OC[C@@H]3CCCN3CCOCCOCCOCCOCCOCCOCCCCCCCCCCCCCCc3cc(Cl)cc(NC(=O)NCc4ccc5c(c4)CN(C4CCC(=O)NC4=O)C5=O)c3)nc3c2CCN(c2cccc4cccc(Cl)c24)C3)C[C@@H]1CC#N (stereo partly drawn) [Compound I-50]
GI50 (HeLa KRas G12C cells): < 1000 nM | DC50 (GSPT1; Table 3): 250 to 5000 nM

C=C(F)C(=O)N1CCN(c2nc(OC[C@@H]3CCCN3CCOCCOCCOCCOCCOCCOCCOCCOCCCCCCCCCCCCCCc3cc(Cl)cc(NC(=O)NCc4ccc5c(c4)CN(C4CCC(=O)NC4=O)C5=O)c3)nc3c2CCN(c2cccc4cccc(Cl)c24)C3)C[C@@H]1CC#N (stereo partly drawn) [Compound I-51]
GI50 (HeLa KRas G12C cells): < 1000 nM | DC50 (GSPT1; Table 3): 250 to 5000 nM

C=C(F)C(=O)N1CCN(c2nc(OC[C@@H]3CCCN3CCOCCOCCOCCOCCOCCOCCOCCOCCOCCOCCCCCCCCCCCCCCc3cc(Cl)cc(NC(=O)NCc4ccc5c(c4)CN(C4CCC(=O)NC4=O)C5=O)c3)nc3c2CCN(c2cccc4cccc(Cl)c24)C3)C[C@@H]1CC#N (stereo partly drawn) [Compound I-52]
GI50 (HeLa KRas G12C cells): < 1000 nM | DC50 (GSPT1; Table 3): 250 to 5000 nM

C=C(F)C(=O)N1CCN(c2nc(OC[C@@H]3CCCN3CCOCCOCCOCCOCCOCCOCCOCCOCCOCCOCCOCCOCCCCCCCCCCCCCCc3cc(Cl)cc(NC(=O)NCc4ccc5c(c4)CN(C4CCC(=O)NC4=O)C5=O)c3)nc3c2CCN(c2cccc4cccc(Cl)c24)C3)C[C@@H]1CC#N (stereo partly drawn) [Compound I-53]
GI50 (HeLa KRas G12C cells): < 1000 nM | DC50 (GSPT1; Table 3): < 250 nM

C=C(F)C(=O)N1CCN(c2nc(OC[C@@H]3CCCN3CCOCCOCCOCCOCCOCCCCCc3cc(Cl)cc(NC(=O)NCc4ccc5c(c4)CN(C4CCC(=O)NC4=O)C5=O)c3)nc3c2CCN(c2cccc4cccc(Cl)c24)C3)C[C@@H]1CC#N (stereo partly drawn) [Compound I-54]
GI50 (HeLa KRas G12C cells): < 1000 nM | DC50 (GSPT1; Table 3): 250 to 5000 nM

CN(C/C=C/C(=O)N1CCN(c2nc(OC[C@@H]3CCCN3C)nc3c2CCN(c2cccc4cccc(Cl)c24)C3)C[C@@H]1CC#N)CCOCCOCCOCCOCCOCCCCCc1cc(Cl)cc(NC(=O)NCc2ccc3c(c2)CN(C2CCC(=O)N(C)C2=O)C3=O)c1 (stereo partly drawn) [Compound I-116]
GI50 (HeLa KRas G12C cells): 1000 to 3000 nM | DC50 (GSPT1; Table 3A): 250 to 5000 nM

C=C(F)C(=O)N1CCN(c2nc(OC[C@@H]3CCCN3CCCOCCOCCOCCOCCOCCOCCOCCCCCc3cc(Cl)cc(NC(=O)NCc4ccc5c(c4)CN(C4CCC(=O)NC4=O)C5=O)c3)nc3c2CCN(c2cccc4cccc(Cl)c24)C3)C[C@@H]1CC#N (stereo partly drawn) [Compound I-118]
GI50 (HeLa KRas G12C cells): 1000 to 3000 nM | DC50 (GSPT1; Table 3A): 250 to 5000 nM

C=C(F)C(=O)N1CCN(c2nc(OC[C@@H]3CCCN3CCCOCCOCCOCCOCCOCCOCCOCCOCCOCCCCCc3ccc(Cl)cc3NC(=O)NCc3ccc4c(c3)CN(C3CCC(=O)NC3=O)C4=O)nc3c2CCN(c2cccc4cccc(Cl)c24)C3)C[C@@H]1CC#N (stereo partly drawn) [Compound I-134]
GI50 (HeLa KRas G12C cells): 3000 to 10000 nM | DC50 (GSPT1; Table 3A): 250 to 5000 nM

C=C(F)C(=O)N1CCN(c2nc(OC[C@@H]3CCCN3CCCOCCOCCOCCOCCOCCOCCOCCCCCc3ccc(Cl)cc3NC(=O)NCc3ccc4c(c3)CN(C3CCC(=O)NC3=O)C4=O)nc3c2CCN(c2cccc4cccc(Cl)c24)C3)C[C@@H]1CC#N (stereo partly drawn) [Compound I-137]
GI50 (HeLa KRas G12C cells): 3000 to 10000 nM | DC50 (GSPT1; Table 3A): 250 to 5000 nM
